Structures are written as SMILES. Active and inactive are the calls of the source. No cut-off for these calls is given here.

Data set [1] is described as follows: Toxicity in mouse assessed as cell death in liver at 100 to 200 mg/kg measured after 7 days by hematoxylin and eosin staining based analysis. The format is organism-based. Particulars: in vivo, 168 h, dose 100-200 mg/kg, time 7 day.
Data set [2] can be described thus: Toxicity in mouse assessed as cell necrosis in liver at 100 to 200 mg/kg measured after 7 days by hematoxylin and eosin staining based analysis. The format is organism-based. Particulars: in vivo, 168 h, dose 100-200 mg/kg, time 7 day.
The nature of data set [3]: Toxicity in mouse assessed as effect on water intake at 100 to 200 mg/kg measured for 7 days. The format is organism-based. Particulars: in vivo, 168 h, dose 100-200 mg/kg, time 7 day.
Data set [4] has as its system Plasmodium falciparum. The data set can be described thus: Antimalarial activity against synchronized ring stage Plasmodium falciparum assessed as reduction in hemozoin level at 1 to 4 uM incubated for 20 hrs by absorbance based analysis. The format is functional, organism-based. Particulars: dose 1-4 µM.

For `O=C(Cn1cc(CN2CCN(c3ccnc4cc(Cl)ccc34)CC2)nn1)Nc1cccc([N+](=O)[O-])c1`, the Activity result in data set [1], in data set [2] and in data set [3] was “Non-Toxic” throughout. For the same compound, the outcome in data set [4] was Active.

For the origin of these results see ChEMBL document CHEMBL5523667, “Blood-stage antimalarial activity, favourable metabolic stability and in vivo toxicity of novel piperazine linked 7-chloroquinoline-triazole conjugates” (Eur J Med Chem, 2024).
